Publication PMC12396409, “Screening and hit evaluation of a microbial metabolite library against the pathogenic Plasmodium falciparum and Toxoplasma gondii parasites” (International Journal for Parasitology: Drugs and Drug …, 2025)
Read-outs that look alike come from different tables or passages of the source.

Assays:
[1] = test system: P. falciparum 3D7 parasites; experiment: P. falciparum growth inhibition assay, 2-cycle (120 h treatment), delayed-death screen and dose-response; format: cell-based, Plasmodium falciparum; settings: for activity at 2 µg/mL: Plasmodium falciparum, 3D7, 120 h, parasite screen 2 μg/mL
[2] = test system: T. gondii RH strain (RH-Tub-eYFP) tachyzoites; experiment: microbe, parasite or virus in culture; format: cell-based, Toxoplasma gondii; settings: 72 h, 72 h; for percent parasite growth at 2 µg/mL: Toxoplasma gondii, parasite screen 2 μg/mL
[3] = test system: P. falciparum 3D7 parasites; experiment: P. falciparum growth inhibition assay, 1-cycle (72 h treatment), SYBR DNA staining (library screen at 2 μg/mL and dose-response); format: cell-based, Plasmodium falciparum; settings: for activity at 2 µg/mL: Plasmodium falciparum, 3D7, 72 h, parasite screen 2 μg/mL
[4] = P. falciparum 3D7, 120 h, parasite screen at 2 μg/mL, % growth, replicate 1
[5] = P. falciparum 3D7, 120 h, parasite screen at 2 μg/mL, % growth, replicate 2
[6] = T. gondii, parasite screen at 2 μg/mL, % growth, replicate 1
[7] = T. gondii, parasite screen at 2 μg/mL, % growth, replicate 2
[8] = P. falciparum 3D7, 72 h, parasite screen at 2 μg/mL, % growth, replicate 1
[9] = P. falciparum 3D7, 72 h, parasite screen at 2 μg/mL, % growth, replicate 2
[10] = P. falciparum 3D7, 120 h, library screen at 2 μg/mL, % growth, replicate 1
[11] = P. falciparum 3D7, 120 h, library screen at 2 μg/mL, % growth, replicate 2
[12] = T. gondii RH, library screen at 2 μg/mL, % growth, replicate 1
[13] = T. gondii RH, library screen at 2 μg/mL, % growth, replicate 2
[14] = P. falciparum 3D7, 72 h, library screen at 2 μg/mL, % growth, replicate 1
[15] = P. falciparum 3D7, 72 h, library screen at 2 μg/mL, % growth, replicate 2
[16] = P. falciparum, 120 h, screen at 2 μg/mL, replicate 1
[17] = P. falciparum, 120 h, screen at 2 μg/mL, replicate 2
[18] = T. gondii, screen at 2 μg/mL, replicate 1
[19] = T. gondii, screen at 2 μg/mL, replicate 2
[20] = P. falciparum, 72 h, screen at 2 μg/mL, replicate 1
[21] = P. falciparum, 72 h, screen at 2 μg/mL, replicate 2

O=C(c1cc(Cl)c(Cl)[nH]1)c1c(O)cccc1O [Pyoluteorin]
activity at 2 µg/mL ([1]; P. falciparum, 120 h, % growth, replicate 1, read-out: Pf_120h_%Growth_Rep1): 21.2% | activity at 2 µg/mL ([1]; P. falciparum, 120 h, % growth, replicate 2, read-out: Pf_120h_%Growth_Rep2): 3.32% | percent parasite growth at 2 µg/mL ([2]; T. gondii, % growth, replicate 1, read-out: Tg_72h_%Growth_Rep1): -1.3% | percent parasite growth at 2 µg/mL ([2]; T. gondii, % growth, replicate 2, read-out: Tg_72h_%Growth_Rep2): -1.92% | activity at 2 µg/mL ([3]; P. falciparum, 72 h, % growth, replicate 1, read-out: Pf_72h_%Growth_Rep1): 12.8% | activity at 2 µg/mL ([3]; P. falciparum, 72 h, % growth, replicate 2, read-out: Pf_72h_%Growth_Rep2): 3.08%

CCC1C=C(C)CC(C)CC(OC)C2OC(O)(C(=O)C(=O)N3CCCCC3C(=O)OC(C(C)=CC3CCC(Cl)C(OC)C3)C(C)C(O)CC1=O)C(C)CC2OC (stereo not drawn) [BIA-P1385]
Pf_120h_%Growth_Rep1 [1, 4]: 11.40% | Pf_120h_%Growth_Rep2 [1, 5]: 13.77% | Tg_72h_%Growth_Rep1 [2, 6]: 65.99% | Tg_72h_%Growth_Rep2 [2, 7]: 84.21% | Pf_72h_%Growth_Rep1 [3, 8]: 6.43% | Pf_72h_%Growth_Rep2 [3, 9]: 7.66%

CO[C@@]12[C@H](COC(N)=O)C3=C(C(=O)C(C)=C(N)C3=O)N1C[C@@H]1N[C@@H]12 [BIA-M1183]
Pf_120h_%Growth_Rep1 [1, 4]: 92.29% | Pf_120h_%Growth_Rep2 [1, 5]: 100.91% | Tg_72h_%Growth_Rep1 [2, 6]: 127.95% | Tg_72h_%Growth_Rep2 [2, 7]: 82.68% | Pf_72h_%Growth_Rep1 [3, 8]: 82.66% | Pf_72h_%Growth_Rep2 [3, 9]: 112.82%

CNC1=NC(=O)C(C(C)c2c[nH]c3ccccc23)O1 (stereo not drawn) [BIA-I1040]
Pf_120h_%Growth_Rep1 [1, 10]: 17.78% | Pf_120h_%Growth_Rep2 [1, 11]: 16.99% | Tg_72h_%Growth_Rep1 [2, 12]: 45.17% | Tg_72h_%Growth_Rep2 [2, 13]: 47.91% | Pf_72h_%Growth_Rep1 [3, 14]: 33.91% | Pf_72h_%Growth_Rep2 [3, 15]: 55.84%

CCCNC[C@]1(O)[C@H](C)O[C@@H](O[C@H]2[C@H](C)[C@@H](O[C@@H]3O[C@H](C)C[C@H](N(C)C)[C@H]3O)[C@](C)(O)C[C@@H](C)CN[C@H](C)[C@@H](O)[C@](C)(O)[C@@H](CC)OC(=O)[C@@H]2C)C[C@@]1(C)OC [Tulathromycin, reference compound]
2) Growth (%) at 120 h ([1]; P. falciparum, 2 μg/mL, 120 h): 16.75% | Pf_120h_%Growth_Rep1 [1, 16]: 21.75% | Pf_120h_%Growth_Rep2 [1, 17]: 11.74% | 3) Fold change (72 h/120 h) ([1]; P. falciparum, growth at 72 h / growth at 120 h, 2 μg/mL): 2.0 | Tg_72h_%Growth_Rep1 [2, 18]: 76.92% | Tg_72h_%Growth_Rep2 [2, 19]: 80.94% | 1) Growth (%) at 72 h ([3]; P. falciparum, 2 μg/mL, 72 h): 33.53% | Pf_72h_%Growth_Rep1 [3, 20]: 33.36% | Pf_72h_%Growth_Rep2 [3, 21]: 33.69%

CCC(C)C1OC2(CCC1C)CC1CC(CC=C(C)C(OC3CC(OC)C(OC4CC(OC)C(O)C(C)O4)C(C)O3)C(C)C=CC=C3COC4C(O)C(C)=CC(C(=O)O1)C34O)O2 (stereo not drawn) [BIA-I1119]
Pf_120h_%Growth_Rep1 [1, 10]: 82.92% | Pf_120h_%Growth_Rep2 [1, 11]: 106.39% | Tg_72h_%Growth_Rep1 [2, 12]: 98.36% | Tg_72h_%Growth_Rep2 [2, 13]: 101.63% | Pf_72h_%Growth_Rep1 [3, 14]: 86.44% | Pf_72h_%Growth_Rep2 [3, 15]: 71.84%

CCCC[C@@H](C)[C@@H](OC(=O)C[C@@H](CC(=O)O)C(=O)O)[C@H](C[C@@H](C)CCCCCC[C@@H](O)C[C@H](O)[C@H](C)N)OC(=O)C[C@@H](CC(=O)O)C(=O)O [Fumonisin B2]
Pf_120h_%Growth_Rep1 ([1]; library screen at 2 μg/mL, 120 h, % growth, replicate 1): 88.54% | Pf_120h_%Growth_Rep2 ([1]; library screen at 2 μg/mL, 120 h, % growth, replicate 2): 108.75% | Tg_72h_%Growth_Rep1 ([2]; library screen at 2 μg/mL, % growth, replicate 1): 118.32% | Tg_72h_%Growth_Rep2 ([2]; library screen at 2 μg/mL, % growth, replicate 2): 95.97% | Pf_72h_%Growth_Rep1 ([3]; library screen at 2 μg/mL, 72 h, % growth, replicate 1): 86.29% | Pf_72h_%Growth_Rep2 ([3]; library screen at 2 μg/mL, 72 h, % growth, replicate 2): 114.27%

CC[C@H]1C[C@]23OC(=O)/C(=C(\O)[C@@]4(CC)[C@@H]5CC[C@H](C)[C@H](O[C@H]6C[C@H](O)[C@H](NC(=O)c7[nH]c(Cl)cc7Cl)[C@@H](C)O6)[C@H]5C=C[C@H]4C/C=C/C/C(C)=C/[C@@]2(C)C=C1C(=O)O)C3=O [Decatromicin B]
Pf_120h_%Growth_Rep1 [1, 16]: 74.87% | Pf_120h_%Growth_Rep2 [1, 17]: 101.36% | Tg_72h_%Growth_Rep1 [2, 18]: 105.42% | Tg_72h_%Growth_Rep2 [2, 19]: 104.91% | Pf_72h_%Growth_Rep1 [3, 20]: 89.49% | Pf_72h_%Growth_Rep2 [3, 21]: 90.33%
